The text below walks through data of publication PMC3684613 (PLoS ONE, 2013).

Experiment [1] concerns P. falciparum 3D7. More on the design: method as in ChEMBL-NTD. The following applies: ref ChEMBL-NTD, cited from earlier work.
Experiment [2] relates to P. falciparum 3D7. The experiment can be described thus: DAPI stain fluorescent high content imaging assay, P. falciparum 3D7 (confirmatory screen, Avery). The settings on record: Plasmodium falciparum; for EC50: 3D7, read-out: EC50_nM; for inhibition of growth at 5 µM: 3D7, read-out: percent_inh @ 5 uM; for inhibition of growth at 2 µM: 3D7, read-out: percent_inh @ 2 uM.
[3] abbreviates: original screening data, source (GSK, GNF, StJude), several values separated by ';' in order of sources.

Read-outs that look alike come from different tables or passages of the source.

Regarding `CN(C)CCCNc1c2ccccc2nc2ccccc12` [MMV000448], the EC50 in experiment [1] (source GNF (GNF-Pf id)) was 32.7 nM; in experiment [1] (source GSK (TCMDC id)), 1040 nM; in experiment [1] (source StJude (SJ id)), 531 nM; in experiment [2] it was 235 nM. In experiment [2], the inhibition of growth at 5 µM came to 95%.

As to `CCOc1cc2c(cc1OCC)C(c1cc(Cl)c(O)c(OCC)c1)NCC2` (centres unmarked) [MMV000481], the EC50 in experiment [1] (source StJude (SJ ids)) was 3010 nM; in experiment [2], 1330 nM. The inhibition of growth at 5 µM in experiment [2] came out at 96%.

Consider `CCOc1cc2c(cc1OCC)C(c1cc(C)c(O)c(C)c1)NCC2` (centres unmarked) [MMV000483], for which, in experiment [1] (setting [3]), the EC50 was 1830 nM. Moreover, in experiment [2], the EC50 was found to be 683 nM and the inhibition of growth at 5 µM worked out at 97%.

As to `CCN(CC)c1cc(C)c2cc(NC(=O)c3cccc(OC)c3)ccc2n1` [MMV000498], the EC50 in experiment [1] (source StJude) was 4770 nM. In addition, the inhibition of growth at 5 µM in experiment [2] is 97%.

Turning to `CCCN(CCC)CCCNC(=O)c1cc2c(-c3ccc(OC)c(OC)c3)nn(C)c2s1` [MMV000561], in experiment [1] (setting [3]), the EC50 was 4040 nM. In experiment [2], the EC50 came to 1430 nM and the inhibition of growth at 5 µM turned out to be 98%.

As for `COc1ccc(C2Sc3ccccc3N=C3C2=C(O)c2ccccc23)cc1` (centres unmarked) [MMV000563], in experiment [1] (source GNF), the EC50 is 238 nM. In experiment [2], the EC50 turned out to be 845 nM and the inhibition of growth at 5 µM was 96%.

For the molecule `CCc1ccc(Nc2cc(C)c3ccc(O)cc3n2)cc1` [MMV000570], in experiment [1] (source StJude (SJ id)), the EC50 was 732 nM. In experiment [2], the EC50 worked out at 194 nM and the inhibition of growth at 5 µM is 98%.

Take `COc1ccc(-c2cc(=O)oc3c4c(ccc23)OCN(Cc2ccc(F)cc2)C4)cc1` [MMV000604]: in experiment [1] (source StJude (SJ ids)), the EC50 was 5210 nM. Further, in experiment [2], the EC50 turned out to be 735 nM and the inhibition of growth at 5 µM amounted to 96%.

Take `COc1ccc(C(O)(CCC(C)C)C(CN2CCOCC2)c2ccc(Cl)cc2)cc1` (centres unmarked) [MMV000617]: in experiment [1] (source StJude (SJ ids)), the EC50 is 4610 nM. Further, the inhibition of growth at 5 µM in experiment [2] is 97%.

Take `CCCCC(O)(c1ccc(Cl)cc1)C(CN1CCOCC1)c1ccc(Cl)cc1` (centres unmarked) [MMV000619]: the EC50 in experiment [1] (source StJude (SJ ids)) was 4010 nM. Moreover, in experiment [2], the EC50 came out at 1380 nM and the inhibition of growth at 5 µM was found to be 98%.

For `CC(O)(c1ccc(Cl)cc1)C(CN1CCCCC1)c1ccccc1` (centres unmarked) [MMV000620], in experiment [1] (source StJude), the EC50 is 916 nM. For the same molecule, in experiment [2], the inhibition of growth at 5 µM turned out to be 94%.

Consider `CCCCCCC(O)(c1ccc(F)cc1)C(CN1CCOCC1)c1ccccc1` (centres unmarked) [MMV000621], for which the EC50 in experiment [1] (source StJude (SJ ids)) is 3180 nM. Further, the inhibition of growth at 5 µM in experiment [2] was 93%.

Turning to `CC1CCCCN1CCCNC(=O)c1ccc2c(c1)sc1nc(-c3ccc(F)cc3)cn12` (centres unmarked) [MMV000634], in experiment [1] (source StJude), the EC50 was 634 nM. Moreover, in experiment [2], the EC50 stood at 648 nM and the inhibition of growth at 5 µM amounted to 98%.

Take `COc1ccc(NC(=O)C2c3ccccc3C(=O)N(CC(C)C)C2c2cccs2)cc1Cl` (centres unmarked) [MMV000642]: the EC50 in experiment [1] (source GNF (GNF-Pf id)) was 91.4 nM; in experiment [1] (source StJude (SJ id)), 119 nM; in experiment [2], 20.2 nM. The inhibition of growth at 5 µM in experiment [2] was determined as 100%.

As to `COc1ccccc1CNC(=O)C1c2ccccc2C(=O)N(CC(C)C)C1c1cccs1` (centres unmarked) [MMV000648], in experiment [1] (source StJude), the EC50 is 3160 nM. Further, in experiment [2], the inhibition of growth at 5 µM amounted to 97%.

As to `CCOc1ccccc1CNC(=O)C1c2ccccc2C(=O)N(CC(C)C)C1c1cccs1` (centres unmarked) [MMV000653], the EC50 in experiment [1] (source StJude) is 1430 nM; in experiment [2], 1320 nM. In addition, the inhibition of growth at 5 µM in experiment [2] is 97%.

As for `COc1ccc(NC(=O)C2c3ccccc3C(=O)N(CC(C)C)C2c2cccs2)cc1` (centres unmarked) [MMV000662], the EC50 in experiment [1] (source StJude (SJ id)) is 102 nM. In addition, in experiment [2], the EC50 came out at 36.7 nM and the inhibition of growth at 5 µM came out at 100%.

Regarding `Cc1ccc(C2CC(C(F)(F)F)n3nc(C(=O)N4CCN(C(c5ccccc5)c5ccccc5)CC4)cc3N2)cc1` (centres unmarked) [MMV000699], the EC50 in experiment [1] (source StJude (SJ ids)) was 668 nM. In addition, in experiment [2], the EC50 amounted to 454 nM and the inhibition of growth at 5 µM was 98%.

Regarding `Cc1ccnc(NC(c2cccc(OCc3ccccc3)c2)c2ccc3cccnc3c2O)c1` (centres unmarked) [MMV000720], the EC50 is 864 nM in experiment [1] (source GSK (TCMDC ids)), 1810 nM in experiment [1] (source StJude (SJ ids)) and 1020 nM in experiment [2]. Besides, in experiment [2], the inhibition of growth at 5 µM is 97%.

As for `Oc1c(CN2CCN(c3ccccc3F)CC2)cc(Br)c2cccnc12` [MMV000760], in experiment [1] (setting [3]), the EC50 is 3760 nM. Also, in experiment [2], the inhibition of growth at 5 µM came to 91%.

`CCCOCc1cc(CN2CCN(c3cccc(Cl)c3)CC2)c(O)c2ncccc12` [MMV000787]: the EC50 in experiment [1] (source StJude (SJ ids)) was 1100 nM; in experiment [2] it was 407 nM. The inhibition of growth at 5 µM in experiment [2] was 97%.

For `CC(C)OCc1cc(CN2CCN(c3cccc(Cl)c3)CC2)c(O)c2ncccc12` [MMV000788], the figures for the EC50 in experiment [1] (source StJude) and in experiment [2] were 941 nM and 697 nM, respectively. For the same molecule, the inhibition of growth at 5 µM in experiment [2] worked out at 98%.

Regarding `OC(CNCc1ccccc1)Cn1c2ccccc2c2ccccc21` (centres unmarked) [MMV000839], the EC50 in experiment [1] (source StJude (SJ ids)) is 3760 nM. Besides, in experiment [2], the EC50 came out at 1080 nM and the inhibition of growth at 5 µM stood at 95%.

In the case of `OC(CNC1CCCC1)Cn1c2ccccc2c2ccccc21` (centres unmarked) [MMV000848], the EC50 in experiment [1] (setting [3]) was 1080 nM. In experiment [2], the EC50 came to 660 nM and the inhibition of growth at 5 µM was 97%.

`Cc1ccc(NC(=O)Nc2cccc(Cl)c2)cc1F` [MMV000911]: the EC50 in experiment [1] (setting [3]) is 15000 nM. In experiment [2], the inhibition of growth at 5 µM came to 52%.

Regarding `COc1ccc2c(c1OC)C(=O)N1c3ccccc3N=C(c3ccc(C)cc3)CC21` (centres unmarked) [MMV000917], the EC50 in experiment [1] (source StJude (SJ ids)) was 2530 nM. In addition, in experiment [2], the EC50 was 1240 nM and the inhibition of growth at 5 µM was found to be 93%.

As to `O=C1CC(O)(C(F)(F)C(F)(F)F)Oc2ccccc21` (centres unmarked) [MMV000972], the EC50 in experiment [1] (setting [3]) is 2570 nM. In addition, in experiment [2], the inhibition of growth at 5 µM was found to be 95%.

Consider `Cc1ccc(Nc2nc(NCCO)c3ccccc3n2)cc1C` [MMV001038], for which the results for the EC50 in experiment [1] (source GNF (GNF-Pf id)), in experiment [1] (source StJude (SJ id)) and in experiment [2] were 175 nM, 843 nM and 428 nM, respectively.

On to `OCCNc1nc(Nc2ccc(Cl)c(Cl)c2)nc2ccccc12` [MMV001041], for which the results for the EC50 in experiment [1] (source GNF), in experiment [1] (source StJude) and in experiment [2] were 140 nM, 15000 nM and 590 nM, respectively. Further, the inhibition of growth at 2 µM in experiment [2] stood at 94%.

Take `CC(C)c1ccc(CNCC(O)c2ccccc2)cc1` (centres unmarked) [MMV001049]: the EC50 in experiment [1] (setting [3]) was 1350 nM. In experiment [2], the EC50 was 1260 nM and the inhibition of growth at 5 µM was 96%.

`CCOc1cccc2sc(N(Cc3cccnc3)C(=O)C3CCCCC3)nc12` [MMV001230]: the EC50 in experiment [1] (source StJude) is 3040 nM. In addition, in experiment [2], the inhibition of growth at 5 µM worked out at 94%.

For the molecule `COc1ccc2sc(N(Cc3cccnc3)C(=O)c3ccc(C#N)cc3)nc2c1` [MMV001239], in experiment [1] (values follow the order of the source (GNF; GSK; StJude)), the EC50 was 15000 nM. For the same molecule, the inhibition of growth at 2 µM in experiment [2] came out at 89%.

For `COc1ccc(C)c2sc(N(Cc3cccnc3)C(=O)c3ccc(C#N)cc3)nc12` [MMV001241], the EC50 in experiment [1] (source StJude (SJ ids)) is 15000 nM. Further, in experiment [2], the inhibition of growth at 5 µM stood at 91%.

As for `CSc1ccccc1C(=O)Nc1nc(-c2ccccn2)cs1` [MMV001246], the EC50 was 6820 nM in experiment [1] (source StJude (SJ id)) and 206 nM in experiment [2]. For the same molecule, in experiment [2], the inhibition of growth at 5 µM came to 98%.

As to `CCCCc1ccc(NS(=O)(=O)c2cc3c4c(c2)CCN4C(=O)CC3)cc1` [MMV001255], the EC50 in experiment [1] (source StJude) is 15000 nM. Besides, in experiment [2], the EC50 was 538 nM and the inhibition of growth at 5 µM came to 96%.

As for `O=C(Nc1ccc(Br)cc1)Nc1cccc(Cl)c1` [MMV001318], the EC50 in experiment [1] (setting [3]) is 15000 nM. The inhibition of growth at 5 µM in experiment [2] was 94%.

In the case of `CC1CC(C)CN(C(=O)c2ccc(Cl)cc2Cl)C1` (centres unmarked) [MMV001344], the EC50 in experiment [1] (setting [3]) was 1320 nM. For the same molecule, in experiment [2], the EC50 stood at 756 nM and the inhibition of growth at 5 µM stood at 95%.
